Laboratory results published in ChEMBL document CHEMBL5528054, “Novel Cocrystal Structures of Peptide Antagonists Bound to the Human Melanocortin Receptor 4 Unveil Unexplored Grounds for Structure-Based Drug Design” (J Med Chem, 2024).
pIC50: −log10 of the molar value.

Key:
[1] = molecular target: T1, Melanocyte-stimulating hormone receptor (Homo sapiens, UniProt Q01726); experiment: Partial agonist activity at C-terminal HA-tagged human MC1-R stably expressed in HEK293 cells co-expressing GScAMP22P cAMP reporter assessed as inhibition of alpha-MSH induced cAMP production by cell based luminescence assay relative to control; assay type: functional; set-up: concentration or dose not given beside the values; settings: filed as partial agonist, concentration not given here
Target sequence in this assay (Q01726 whole entry, looked up): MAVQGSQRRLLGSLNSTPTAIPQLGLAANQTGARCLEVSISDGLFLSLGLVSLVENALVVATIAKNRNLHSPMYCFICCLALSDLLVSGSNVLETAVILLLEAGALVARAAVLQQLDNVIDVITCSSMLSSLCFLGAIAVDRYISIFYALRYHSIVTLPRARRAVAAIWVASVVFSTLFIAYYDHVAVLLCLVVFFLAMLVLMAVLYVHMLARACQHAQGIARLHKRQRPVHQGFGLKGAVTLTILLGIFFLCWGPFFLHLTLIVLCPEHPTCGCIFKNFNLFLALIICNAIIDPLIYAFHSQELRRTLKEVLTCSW

[2] = molecular target: T1, Melanocyte-stimulating hormone receptor; experiment: Partial agonist activity at C-terminal HA-tagged human MC1-R stably expressed in HEK293 cells co-expressing GScAMP22P cAMP reporter assessed as inhibition of alpha-MSH induced cAMP production by cell based luminescence assay; assay type: functional
Target sequence in this assay (Q01726 whole entry): as the sequence (Q01726 whole entry, looked up) above

[3] = molecular target: Melanocortin receptor 3 (Homo sapiens, UniProt P41968); experiment: Antagonist activity at C-terminal HA-tagged human MC3-R stably expressed in HEK293 cells co-expressing GScAMP22P cAMP reporter assessed as inhibition of alpha-MSH induced cAMP production by cell based luminescence assay; assay type: functional; settings: read-out: IC50
Sequence of Melanocortin receptor 3 (P41968 whole entry): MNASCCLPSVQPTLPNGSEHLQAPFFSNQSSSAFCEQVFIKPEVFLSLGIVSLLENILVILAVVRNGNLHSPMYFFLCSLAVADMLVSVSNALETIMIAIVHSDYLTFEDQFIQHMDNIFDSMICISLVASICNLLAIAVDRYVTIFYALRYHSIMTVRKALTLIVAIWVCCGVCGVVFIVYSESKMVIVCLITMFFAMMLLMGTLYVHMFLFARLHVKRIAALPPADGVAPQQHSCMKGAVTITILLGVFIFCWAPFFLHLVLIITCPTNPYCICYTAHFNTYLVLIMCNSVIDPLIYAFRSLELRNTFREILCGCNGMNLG

[4] = system: HEK293; experiment: (§1) Selectivity ratio of IC50 for C-terminal HA-tagged human MC4-R stably expressed in HEK293 cells co-expressing GScAMP22P cAMP reporter assessed as inhibition of alpha-MSH induced cAMP production to IC50 for C-terminal HA-tagged human MC3-R stably expressed in HEK293 cells co-expressing GScAMP22P cAMP reporter assessed as inhibition of alpha-MSH induced cAMP production; assay type: cell-based
[5] = system: HEK293; experiment: as §1, with “MC1-R” for “MC3-R”; assay type: cell-based
[6] = molecular target: Melanocortin receptor 4 (Homo sapiens, UniProt P32245); experiment: Antagonist activity at C-terminal HA-tagged human MC4-R stably expressed in HEK293 cells co-expressing GScAMP22P cAMP reporter assessed as inhibition of alpha-MSH induced cAMP production by cell based luminescence assay; assay type: functional; settings: read-out: IC50
Sequence of Melanocortin receptor 4 (P32245 whole entry): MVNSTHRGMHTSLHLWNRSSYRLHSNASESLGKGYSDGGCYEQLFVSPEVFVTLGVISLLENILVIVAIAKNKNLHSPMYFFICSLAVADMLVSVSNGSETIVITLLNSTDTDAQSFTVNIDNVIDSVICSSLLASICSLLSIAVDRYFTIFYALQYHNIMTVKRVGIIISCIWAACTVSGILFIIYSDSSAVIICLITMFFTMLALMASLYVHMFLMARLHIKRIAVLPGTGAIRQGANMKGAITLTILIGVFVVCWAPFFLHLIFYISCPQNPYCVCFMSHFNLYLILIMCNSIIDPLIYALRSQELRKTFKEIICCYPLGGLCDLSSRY

Row | Compound | inhibition [1] [%] | pIC50 [2] | other results
1 | CCCC[C@H](NC(C)=O)C(=O)N[C@H]1CC(=O)NCCCC[C@@H](C(N)=O)NC(=O)CNC(=O)[C@H](Cc2c[nH]c3ccccc23)NC(=O)[C@H](CCCNC(=N)N)NC(=O)[C@@H](Cc2ccc3ccccc3c2)NC(=O)[C@@H]2C[C@H](n3cc(C4CCCCC4)nn3)CN2C1=O | 89.5 | 7.11 | pIC50 [3]: 7.25
2 | CCCC[C@H](NC(C)=O)C(=O)N[C@H]1CC(=O)NCCCC[C@@H](C(N)=O)NC(=O)CNC(=O)[C@H](Cc2c[nH]c3ccccc23)NC(=O)[C@H](CCCNC(=N)N)NC(=O)[C@@H](Cc2ccc3ccccc3c2)NC(=O)[C@@H]2C[C@H](NC(=O)Cc3ccccc3)CN2C1=O | 90.1 | 7.87 | –
3 | CCCCC(NC(C)=O)C(=O)N[C@H]1CC(=O)NCCCC[C@@H](C(N)=O)NC(=O)CNC(=O)[C@H](Cc2c[nH]c3ccccc23)NC(=O)[C@H](CCCNC(=N)N)NC(=O)[C@@H](Cc2ccc3ccccc3c2)NC(=O)[C@@H]2C[C@@H](n3cc(-c4ccccn4)nn3)CN2C1=O (stereo not given in full) | 88.4 | – | Ratio IC50 [4]: 1.6; Ratio IC50 [5]: 53
4 | CCCC[C@H](NC(C)=O)C(=O)N[C@H]1CC(=O)NCCCC[C@@H](C(N)=O)NC(=O)[C@H](CCCCNC(=N)NCCN)NC(=O)[C@H](Cc2c[nH]c3ccccc23)NC(=O)[C@H](CCCNC(=N)N)NC(=O)[C@@H](Cc2ccc3ccccc3c2)NC(=O)[C@@H]2CCCN2C1=O | 85.3 | 7.81 | –
5 | CCCCCC(=O)N[C@H]1C[C@H]2C(=O)N[C@H](Cc3ccc4ccccc4c3)C(=O)N[C@@H](CCCNC(=N)N)C(=O)N[C@@H](Cc3c[nH]c4ccccc34)C(=O)NCC(=O)N[C@H](C(N)=O)CCCCNC(=O)C[C@H](NC(=O)[C@H](CCCC)NC(C)=O)C(=O)N2C1 | – | 8.00 | –
6 | CCCC[C@H](NC(C)=O)C(=O)N[C@H]1CC(=O)NCCCC[C@@H](C(N)=O)NC(=O)CNC(=O)[C@H](Cc2c[nH]c3ccccc23)NC(=O)[C@H](CCCNC(=N)N)NC(=O)[C@@H](Cc2ccc3ccccc3c2)NC(=O)[C@@H]2C[C@@H](n3cc(C(C)(C)N)nn3)CN2C1=O | – | – | pIC50 ([2]; hek293): 8.82; pIC50 ([6]; hek293): 8.36; pIC50 ([3]; hek293): 7.14
7 | CCCC[C@H](NC(C)=O)C(=O)N[C@H]1CC(=O)NCCCC[C@@H](C(N)=O)NC(=O)[C@H](CCCCNC(=N)NCc2ccccc2)NC(=O)[C@H](Cc2c[nH]c3ccccc23)NC(=O)[C@H](CCCNC(=N)N)NC(=O)[C@@H](Cc2ccc3ccccc3c2)NC(=O)[C@@H]2CCCN2C1=O | 89.6 | 7.04 | –
8 | CCCC[C@H](NC(C)=O)C(=O)N[C@H]1CC(=O)NCCCC[C@@H](C(N)=O)NC(=O)[C@H](CCCCNC(=N)N)NC(=O)[C@H](Cc2c[nH]c3ccccc23)NC(=O)[C@H](CCCNC(=N)N)NC(=O)[C@@H](Cc2ccc3ccccc3c2)NC(=O)[C@@H]2CCCN2C1=O | 90.6 | 6.09 | –
9 | CCCC[C@H](NC(C)=O)C(=O)N[C@H]1CC(=O)NCCCC[C@@H](C(N)=O)NC(=O)[C@H](CCCCNC(=N)NCCC)NC(=O)[C@H](Cc2c[nH]c3ccccc23)NC(=O)[C@H](CCCNC(=N)N)NC(=O)[C@@H](Cc2ccc3ccccc3c2)NC(=O)[C@@H]2CCCN2C1=O | 86.2 | 7.12 | –
10 | CCCCCCc1cn([C@H]2C[C@H]3C(=O)N[C@H](Cc4ccc5ccccc5c4)C(=O)N[C@@H](CCCNC(=N)N)C(=O)N[C@@H](Cc4c[nH]c5ccccc45)C(=O)NCC(=O)N[C@H](C(N)=O)CCCCNC(=O)C[C@H](NC(=O)[C@H](CCCC)NC(C)=O)C(=O)N3C2)nn1 | 83.5 | 7.16 | Ratio IC50 [4]: 6; Ratio IC50 [5]: 7; pIC50 [6]: 8.00; pIC50 [3]: 7.23
11 | CCCC[C@H](NC(C)=O)C(=O)N[C@H]1CC(=O)NCCCC[C@@H](C(N)=O)NC(=O)CNC(=O)[C@H](Cc2c[nH]c3ccccc23)NC(=O)[C@H](CCCNC(=N)N)NC(=O)[C@@H](Cc2ccc3ccccc3c2)NC(=O)[C@@H]2C[C@@H](n3cc(-c4ccccn4)nn3)CN2C1=O | – | – | pIC50 ([2]; hek293): 6.67; pIC50 ([6]; hek293): 8.40; pIC50 ([3]; hek293): 8.20
12 | CCCC[C@H](NC(C)=O)C(=O)N[C@H]1CC(=O)NCCCC[C@@H](C(N)=O)NC(=O)CNC(=O)[C@H](Cc2c[nH]c3ccccc23)NC(=O)[C@H](CCCNC(=N)N)NC(=O)[C@@H](Cc2ccc3ccccc3c2)NC(=O)[C@@H]2C[C@@H](n3cc(CCCNC(=N)N)nn3)CN2C1=O | – | – | pIC50 ([2]; hek293): 9.31; pIC50 ([6]; hek293): 8.49; pIC50 ([3]; hek293): 7.73
13 | CCCC[C@H](NC(C)=O)C(=O)N[C@H]1CC(=O)NCCCC[C@@H](C(N)=O)NC(=O)CNC(=O)[C@H](Cc2c[nH]c3ccccc23)NC(=O)[C@H](CCCNC(=N)N)NC(=O)[C@@H](Cc2ccc3ccccc3c2)NC(=O)[C@@H]2C[C@H](NC(=O)c3ccccc3)CN2C1=O | 90.9 | 7.65 | –
14 | CCCC[C@H](NC(C)=O)C(=O)N[C@H]1CC(=O)NCCCC[C@@H](C(N)=O)NC(=O)[C@H](Cc2ccc(NC(=N)N)cc2)NC(=O)[C@H](Cc2c[nH]c3ccccc23)NC(=O)[C@H](CCCNC(=N)N)NC(=O)[C@@H](Cc2ccc3ccccc3c2)NC(=O)[C@@H]2CCCN2C1=O | 88.6 | 7.05 | –
15 | CCCC[C@H](NC(C)=O)C(=O)N[C@H]1CC(=O)NCCCC[C@@H](C(N)=O)NC(=O)[C@H](Cc2c[nH]c3ccccc23)NC(=O)[C@H](CCCNC(=N)N)NC(=O)[C@@H](Cc2ccc3ccccc3c2)NC(=O)[C@H](Cc2c[nH]cn2)NC1=O | 76 | – | –
16 | CCCC[C@H](NC(C)=O)C(=O)N[C@H]1CC(=O)NCCCC[C@@H](C(N)=O)NC(=O)[C@H](CCCCNC(=N)NCCC(=O)O)NC(=O)[C@H](Cc2c[nH]c3ccccc23)NC(=O)[C@H](CCCNC(=N)N)NC(=O)[C@@H](Cc2ccc3ccccc3c2)NC(=O)[C@@H]2CCCN2C1=O | 83.2 | 6.22 | –
17 | CC(=O)N[C@H](CCCNC(=N)N)C(=O)N[C@H]1CC(=O)NCCCC[C@@H](C(N)=O)NC(=O)[C@H](CCCNC(=N)N)NC(=O)[C@H](Cc2c[nH]c3ccccc23)NC(=O)[C@H](CCCNC(=N)N)NC(=O)[C@@H](Cc2ccc3ccccc3c2)NC(=O)[C@@H]2CCCN2C1=O | 94.6 | 5.91 | –
18 | CC(=O)N[C@H](CCCN)C(=O)N[C@H]1CC(=O)NCCCC[C@@H](C(N)=O)NC(=O)[C@H](CCCNC(=N)N)NC(=O)[C@H](Cc2c[nH]c3ccccc23)NC(=O)[C@H](CCCNC(=N)N)NC(=O)[C@@H](Cc2ccc3ccccc3c2)NC(=O)[C@@H]2CCCN2C1=O | 73.7 | 5.51 | –
19 | CCCC[C@H](NC(C)=O)C(=O)N[C@H]1CC(=O)NCCCC[C@@H](C(N)=O)NC(=O)CNC(=O)[C@H](Cc2c[nH]c3ccccc23)NC(=O)[C@H](CCCNC(=N)N)NC(=O)[C@@H](Cc2ccc3ccccc3c2)NC(=O)[C@@H]2C[C@@H](NC(=O)CCNC(=N)N)CN2C1=O | 76.4 | 10.10 | –
20 | CCCC[C@H](NC(C)=O)C(=O)N[C@H]1CC(=O)NCCCC[C@@H](C(N)=O)NC(=O)CNC(=O)[C@H](Cc2c[nH]c3ccccc23)NC(=O)[C@H](CCCNC(=N)N)NC(=O)[C@@H](Cc2ccc3ccccc3c2)NC(=O)[C@@H]2C[C@H](NC(=O)CCNC(=N)N)CN2C1=O | 78.6 | 9.92 | –
21 | CCCC[C@H](NC(C)=O)C(=O)N[C@H]1CC(=O)NCCCC[C@@H](C(N)=O)NC(=O)[C@H](CCCN)NC(=O)[C@H](Cc2c[nH]c3ccccc23)NC(=O)[C@H](CCCNC(=N)N)NC(=O)[C@@H](Cc2ccc3ccccc3c2)NC(=O)[C@@H]2CCCN2C1=O | 83.8 | 6.44 | –
22 | CCCC[C@H](NC(C)=O)C(=O)N[C@H]1CC(=O)NCCCC[C@@H](C(N)=O)NC(=O)[C@H](CCCCN)NC(=O)[C@H](Cc2c[nH]c3ccccc23)NC(=O)[C@H](CCCNC(=N)N)NC(=O)[C@@H](Cc2ccc3ccccc3c2)NC(=O)[C@@H]2CCCN2C1=O | 81.6 | 6.80 | –
23 | CCCC[C@H](NC(C)=O)C(=O)N[C@H]1CC(=O)NCCCC[C@@H](C(N)=O)NC(=O)CNC(=O)[C@H](Cc2c[nH]c3ccccc23)NC(=O)[C@H](CCCNC(=N)N)NC(=O)[C@@H](Cc2ccc3ccccc3c2)NC(=O)[C@@H]2C[C@H](n3cc(CCNC(=N)N)nn3)CN2C1=O | 85.9 | 8.29 | –
24 | CCCC[C@H](NC(C)=O)C(=O)N[C@H]1CC(=O)NCCCC[C@@H](C(N)=O)NC(=O)[C@H](CCCNC(N)=O)NC(=O)[C@H](Cc2c[nH]c3ccccc23)NC(=O)[C@H](CCCNC(=N)N)NC(=O)[C@@H](Cc2ccc3ccccc3c2)NC(=O)[C@@H]2CCCN2C1=O | 91.2 | 6.24 | –
25 | CCCCC(NC(C)=O)C(=O)N[C@H]1CC(=O)NCCCC[C@@H](C(N)=O)NC(=O)CNC(=O)[C@H](Cc2c[nH]c3ccccc23)NC(=O)[C@H](CCCNC(=N)N)NC(=O)[C@@H](Cc2ccc3ccccc3c2)NC(=O)[C@@H]2C[C@@H](n3cc(CCCNC(=N)N)nn3)CN2C1=O (stereo not given in full) | 84.7 | – | Ratio IC50 [4]: 5.8; Ratio IC50 [5]: 0.1
26 | CCCC[C@H](NC(C)=O)C(=O)N[C@H]1CC(=O)NCCCC[C@@H](C(N)=O)NC(=O)[C@H](CCCCNC(=N)N(CCC)CCC)NC(=O)[C@H](Cc2c[nH]c3ccccc23)NC(=O)[C@H](CCCNC(=N)N)NC(=O)[C@@H](Cc2ccc3ccccc3c2)NC(=O)[C@@H]2CCCN2C1=O | 88.7 | 6.76 | –
